US8829185B2 (Bayer HealthCare LLC, priority 2005, dated 2014)

Key:
FGFR1-GST = molecular target: T1, FGFR1-GST (Homo sapiens, UniProt P11362); test: FGFR-1 TR-FRET biochemical assay
T1 construct: GST; made in house
How it was run: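 LANCE TR-FRET with 5 nM FGFR1-GST, 0.6 uM ATP, 25 nM biotin-poly GT in HEPES pH 7.5/MgCl2, 1% DMSO; compound added before enzyme, 1 h at room temperature. 665/615 nm ratio, background without ATP; % inhibition over 10 μM–0.128 nM final for IC50.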

[1] = system: histone 3 phosphorylation in colon carcinoma (HCT116); test: p-Histone3 assay; type: cell-based; settings: Homo sapiens, HCT-116, 24 h, HCT116, 24 hours treatment
Description: Compounds were assayed for the inhibition of histone 3 phosphorylation in colon carcinoma (HCT116). Briefly, 20,000 cells/well were seeded in a 96-well black-walled, poly-d-lysine plates in RPMI+10% FBS and incubated at 37° C. in 5% CO2 overnight. The following day, the cells were treated with compounds for 24 hours at 37° C. Following compound treatment; plates were centrifuged at 1000 rpm for 2 minutes and washed twice with 100 μl of cold sterile TBS. Cells were then fixed with cold 3.7% formaldehyde in TBS (4° C. for 1 hour) and then permeabalized with 0.1% Triton-X-100 in TBS (room temperature for 30 minutes). Plates were then washed with of 0.25% BSA-TBS and blocked with BSA solution for 1 hour at room temperature while shaking. The supernatant was removed and replaced with diluted primary antibody (anti-phospho-histone 3, serine 10, Cell Signaling) at 1:250 in 0.25% BSA-TBS and incubated overnight at 4° C. The plates were washed and treated with diluted secondary antibody (anti-rabbit Eu-labeled) at 1:10000 in 0.25% BSA-TBS (room temperature for 1 hour). The antibody solution was removed from each well and washed eight times. The wash buffer was replaced with 50 μl pre-warmed enhancement solution and mixed on the orbital shaker for 10 minutes. Fluorescence was detected with a Victor V Fluorescence Detector. The data are expressed as percent inhibition: % inhibition=100−((Signal with inhibitor-background)/(Signal without inhibitor-background))×100.

HCT116 cells = test: Tumor cell proliferation (Alamar Blue), HCT116; type: cell-based; settings: Homo sapiens, HCT-116, 72 h, HCT116, 72 h
Description: (§1) Human tumor cells (e.g., HCT116 or MDA-MB-231 cells), were seeded in a Costar 96-well plate at 3.0×10^3 cells/well and grown in 150 μl of RPMI complete media (Invitrogen Corporation, Grand Island, N.Y.) containing 10% fetal bovine serum (Hyclone, Logan, Utah) at 37° C. for 16 h in an incubator with 5% CO2. To each well, 50 μl of additional growth media containing 40 μM to 18 nM concentrations of compound with 0.4% DMSO was added. Cells were grown for another 72 h at 37° C. with 5% CO2. 20 μl of Alamar Blue (Trek Diagnostic Systems, Inc., Cleveland, Ohio) reagent was added to each well and incubated for 3 h at 37° C. Plates were read in a SpectraMax Gemini (Molecular Devices, CA) with 544 nm excitation and 590 nm emission wavelength. IC50 values were determined by linear regression analysis of log drug concentration versus percent inhibition.

MDA-MB-231 cells = test: Tumor cell proliferation (Alamar Blue), MDA-MB-231; type: cell-based; settings: Homo sapiens, MDA-MB-231, 72 h
Description: as §1

T1 sequence (P11362 22-822): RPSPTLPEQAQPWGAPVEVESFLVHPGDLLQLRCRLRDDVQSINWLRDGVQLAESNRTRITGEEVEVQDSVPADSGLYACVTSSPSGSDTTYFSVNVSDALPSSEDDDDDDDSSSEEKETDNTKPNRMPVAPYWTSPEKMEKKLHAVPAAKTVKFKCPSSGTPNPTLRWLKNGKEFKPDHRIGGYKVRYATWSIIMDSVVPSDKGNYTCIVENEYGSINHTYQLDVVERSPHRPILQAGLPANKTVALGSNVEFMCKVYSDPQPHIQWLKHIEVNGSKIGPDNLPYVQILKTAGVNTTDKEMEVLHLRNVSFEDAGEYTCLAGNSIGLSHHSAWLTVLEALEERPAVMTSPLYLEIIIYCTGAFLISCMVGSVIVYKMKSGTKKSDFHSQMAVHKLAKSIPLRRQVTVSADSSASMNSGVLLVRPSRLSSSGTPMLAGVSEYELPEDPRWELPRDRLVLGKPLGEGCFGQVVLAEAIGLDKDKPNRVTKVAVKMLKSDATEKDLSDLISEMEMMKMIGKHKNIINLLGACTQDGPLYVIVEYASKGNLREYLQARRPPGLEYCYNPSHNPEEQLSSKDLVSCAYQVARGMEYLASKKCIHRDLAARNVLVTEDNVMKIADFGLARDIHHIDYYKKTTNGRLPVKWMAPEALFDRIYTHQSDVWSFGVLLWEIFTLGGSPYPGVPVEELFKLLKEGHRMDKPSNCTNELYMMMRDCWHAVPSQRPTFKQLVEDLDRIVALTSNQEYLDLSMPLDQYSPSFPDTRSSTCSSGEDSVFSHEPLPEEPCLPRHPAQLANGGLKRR

| IC50 (FGFR1-GST; bounds given in nM) [nM] | IC50 ([1]; bounds given in μM) [µM] | IC50 ([1]; lower bound in nM) [µM] | SMILES | further results |
| --- | --- | --- | --- | --- |
| 10 to 100 | < 5 | > 0.5 | Nc1ncnn2c(CN3CCOCC3)c(CO)c(-c3ccc(NC(=O)Nc4cc(C(F)(F)F)ccc4F)cc3)c12 [Example 34, N-4-[4-amino-6-(hydroxymethyl)-7-(morpholin-4-ylmethyl)-pyrrolo[2,1-f][1,2,4]triazin-5-yl]phenyl-N′-[2-fluoro-5-(trifluoromethyl)-phenyl]urea] |  |
| < 10 | < 5 | > 0.5 | Nc1ncnn2c(CN3CCOCC3)c(C(=O)NCC(F)(F)F)c(-c3ccc(NC(=O)Nc4cc(C(F)(F)F)ccc4F)cc3)c12 [Example 9, 4-amino-5-{4-[({[2-fluoro-5-(trifluoromethyl)-phenyl]amino}carbonyl)amino]phenyl}-7-(morpholin-4-ylmethyl)-N-(2,2,2-trifluoroethyl)pyrrolo[2,1-f][1,2,4]triazine-6-carboxamide] |  |
| < 10 | < 5 | > 0.5 | Cc1c(-c2ccc(NC(=O)Nc3cc(C(F)(F)F)ccc3F)cc2)c2c(N)ncnn2c1CN1CCOCC1 [Example 111, N-{4-[4-amino-6-methyl-7-(morpholin-4-ylmethyl)pyrrolo[2,1-f][1,2,4]triazin-5-yl]phenyl}-N′-[2-fluoro-5-(trifluoromethyl)phenyl]urea] |  |
| 10 to 100 | 5 to 10 |  | Nc1ncnn2c(CN3CCOCC3)c(CO)c(-c3ccc(NC(=O)Nc4cc(C(F)(F)F)ccn4)cc3)c12 [Example 62, N-{4-[4-amino-6-(hydroxymethyl)-7-(morpholin-4-ylmethyl)pyrrolo[2,1-f][1,2,4]triazin-5-yl]phenyl}-N′-[4-(trifluoromethyl)-pyridin-2-yl]urea] |  |
| < 10 | < 5 | > 0.5 | CN1CCN(Cc2c(C(=O)NCC(F)(F)F)c(-c3ccc(NC(=O)Nc4cc(C(F)(F)F)ccc4F)cc3)c3c(N)ncnn23)CC1 [Example 10, 4-amino-5-{4-[({[2-fluoro-5-(trifluoromethyl)-phenyl]amino}carbonyl)amino]phenyl}-7-[(4-methylpiperazin-1-yl)methyl]-N-(2,2,2-trifluoroethyl)pyrrolo[2,1-f][1,2,4]triazine-6-carboxamide] |  |
| < 10 | < 5 | > 0.5 | N#Cc1c(-c2ccc(NC(=O)Nc3cc(C(F)(F)F)ccc3F)cc2)c2c(N)ncnn2c1CN1CCOCC1 [Example 54, N-4-[4-amino-6-cyano-7-(morpholin-4-ylmethyl)pyrrolo[2,1-f][1,2,4]triazin-5-yl]phenyl-N′-[2-fluoro-5-(trifluoromethyl)phenyl]urea] |  |
| < 10 | < 5 | > 0.5 | N#CCc1c(-c2ccc(NC(=O)Nc3cc(C(F)(F)F)ccc3F)c(F)c2)c2c(N)ncnn2c1CN1CCOCC1 [Example 69, N-{4-[4-amino-6-(cyanomethyl)-7-(morpholin-4-ylmethyl)-pyrrolo[2,1-f][1,2,4]triazin-5-yl]-2-fluorophenyl}-N′-[2-fluoro-5-(trifluoromethyl)phenyl]urea] |  |
|  |  |  | COCc1c(-c2ccc(NC(=O)Nc3cc(C(F)(F)F)ccc3F)cc2)c2c(N)ncnn2c1C(C)O (centres unmarked) [Example 25, N-{4-[4-amino-7-(1-hydroxyethyl)-6-(methoxymethyl)pyrrolo[2,1-f][1,2,4]triazin-5-yl]phenyl}-N′-[2-fluoro-5-(trifluoromethyl)phenyl]urea] | IC50 (HCT116 cells; lower bound in nM): > 500 nM; IC50 (HCT116 cells; upper bound given in μM): < 4000 nM |
|  | < 5 | > 0.5 | CN(C)Cc1c(C(=O)NCC(F)(F)F)c(-c2ccc(NC(=O)Nc3cccc(C(F)(F)F)n3)cc2)c2c(N)ncnn12 [Example 53, 4-amino-7-[(dimethylamino)methyl]-N-(2,2,2-trifluoroethyl)-5-{-4-[({[6-(trifluoromethyl)-pyridin-2-yl]amino}carbonyl)-amino]phenyl}pyrrolo[2,1-f][1,2,4]triazine-6-carboxamide] |  |
| 10 to 100 | 5 to 10 |  | COCc1c(-c2ccc(NC(=O)Nc3cc(C(F)(F)F)ccc3F)cc2)c2c(N)ncnn2c1CN1CCN(S(C)(=O)=O)CC1 [Example 20, N-[4-(4-amino-6-(methoxymethyl)-7-{[4-(methylsulfonyl)piperazin-1-yl]methyl}pyrrolo[2,1-f][1,2,4]triazin-5-yl)phenyl]-N′-[2-fluoro-5-(trifluoromethyl)phenyl]urea] |  |
| 10 to 100 |  |  | COCc1c(-c2ccc(NC(=O)Nc3cc(C(F)(F)F)ccc3F)cc2)c2c(N)ncnn2c1CO [Example 23, N-{4-[4-amino-7-(hydroxymethyl)-6-(methoxymethyl)-pyrrolo[2,1-f][1,2,4]triazin-5-yl]phenyl}-N′-[2-fluoro-5-(trifluoromethyl)-phenyl]urea] | IC50 (HCT116 cells; lower bound in nM): > 500 nM; IC50 (HCT116 cells; upper bound given in μM): < 4000 nM; IC50 (MDA-MB-231 cells; lower bound in nM): > 500 nM; IC50 (MDA-MB-231 cells; upper bound given in μM): < 5000 nM |
| < 10 | 5 to 10 |  | Nc1ncnn2c(CN3CCOCC3)c(-c3cnco3)c(-c3ccc(NC(=O)Nc4cc(C(F)(F)F)ccn4)c(F)c3)c12 [Example 33, N-4-[4-amino-7-(morpholin-4-ylmethyl)-6-(1,3-oxazol-5-yl)pyrrolo[2,1-f][1,2,4]triazin-5-yl]-2-fluorophenyl-N′-[4-(trifluoromethyl)pyridin-2-yl]urea] |  |
| > 100 |  |  | CC(C)(C)C(=O)c1c(-c2ccc(NC(=O)Nc3cc(C(F)(F)F)ccn3)cc2)c2c(N)ncnn2c1CN1CCOCC1 [Example 92, N-{4-[4-amino-6-(2,2-dimethylpropanoyl)-7-(morpholin-4-ylmethyl)pyrrolo[2,1-f][1,2,4]triazin-5-yl]phenyl}-N′-[4-(trifluoromethyl)-pyridin-2-yl]urea] | IC50 (FGFR1-GST; upper bound in μM): < 1000 nM |
| 10 to 100 |  |  | CC(=O)c1c(-c2ccc(NC(=O)Nc3cc(C(F)(F)F)ccn3)cc2)c2c(N)ncnn2c1CN1CCOCC1 [Example 88, N-{4-[6-acetyl-4-amino-7-(morpholin-4-ylmethyl)pyrrolo[2,1-f][1,2,4]triazin-5-yl]phenyl}-N′-[4-(trifluoromethyl)-pyridin-2-yl]urea] |  |
| < 10 |  |  | Nc1ncnn2c(CN3CCOCC3)c(-c3cnco3)c(-c3ccc(NC(=O)Nc4cc(C(F)(F)F)ccn4)cc3)c12 [Example 27, N-4-[4-amino-7-(morpholin-4-ylmethyl)-6-(1,3-oxazol-5-yl)pyrrolo[2,1-f][1,2,4]triazin-5-yl]phenyl-N′-[4-(trifluoromethyl)pyridin-2-yl]urea] |  |
| 10 to 100 |  |  | CC(O)c1c(-c2ccc(NC(=O)Nc3cc(C(F)(F)F)ccc3F)cc2)c2c(N)ncnn2c1CN1CCOCC1 (centres unmarked) [Example 104, N-4-[4-amino-6-(1-hydroxyethyl)-7-(morpholin-4-ylmethyl)-pyrrolo[2,1-f][1,2,4]triazin-5-yl]phenyl-N′-[2-fluoro-5-(trifluoromethyl)-phenyl]urea] |  |
| < 10 |  |  | COCc1c(-c2ccc(NC(=O)Nc3cc(C(F)(F)F)ccc3F)cc2)c2c(N)ncnn2c1CN1CCNC(=O)C1 [Example 19, N-(4-{4-amino-6-(methoxymethyl)-7-[(3-oxopiperazin-1-yl)methyl]pyrrolo[2,1-f][1,2,4]triazin-5-yl}phenyl)-N′-[2-fluoro-5-(trifluoromethyl)phenyl]urea] |  |
| < 10 |  |  | COCc1c(-c2ccc(NC(=O)Nc3cc(C(C)(C)C)ccn3)c(F)c2)c2c(N)ncnn2c1CN1CCOCC1 [Example 135, N-{4-[4-amino-6-(methoxymethyl)-7-(morpholin-4-ylmethyl)-pyrrolo[2,1-f][1,2,4]triazin-5-yl]-2-fluorophenyl}-N′-(4-tert-butylpyridin-2-yl)urea] |  |
| 10 to 100 |  |  | CC(=O)c1c(-c2ccc(NC(=O)Nc3cc(C(F)(F)F)ccn3)cc2)c2c(N)ncnn2c1CN1CCN(C)CC1 [Example 96, N-(4-{6-acetyl-4-amino-7-[(4-methylpiperazin-1-yl)methyl]pyrrolo[2,1-f][1,2,4]triazin-5-yl}phenyl)-N′-[4-(trifluoromethyl)-pyridin-2-yl]urea] |  |
